The target of one assay is EGFR del19 T790M C797S (Homo sapiens, UniProt P00533, C797S/T790M, form not given). Description: pEGFR assay: phosphorylation of EGFR at Tyr1068 in Ba/F3 cells (AlphaScreen Surefire). The settings on record: 4 h. Format: cell-based. Here is the method: Transduced cells were selected using puromycin. Following selection, IL-3 was withdrawn and IL-3 independent cells cultured. p-EGFR Tyr1068 was determined using the AlphaScreen Surefire pEGF Receptor (Tyr1068) Assay (PerkinElmer, TGRERS). […] Subsequently, 60.000 cells/well in 60 μL were added. Cells were incubated with compound for 4 h at 37° C. […] The mixture was incubated at room temperature with shaking (700 rpm) for 20 min. After centrifugation, 4 μL of the lysate were transferred to Proxiplates. […] Plates were shaken for 1 min (1400 rpm) and incubated for 2 h at room temperature in the dark.
Chain of EGFR del19 T790M C797S (P00533 25-1210 T790M/C797S limits assumed, form open): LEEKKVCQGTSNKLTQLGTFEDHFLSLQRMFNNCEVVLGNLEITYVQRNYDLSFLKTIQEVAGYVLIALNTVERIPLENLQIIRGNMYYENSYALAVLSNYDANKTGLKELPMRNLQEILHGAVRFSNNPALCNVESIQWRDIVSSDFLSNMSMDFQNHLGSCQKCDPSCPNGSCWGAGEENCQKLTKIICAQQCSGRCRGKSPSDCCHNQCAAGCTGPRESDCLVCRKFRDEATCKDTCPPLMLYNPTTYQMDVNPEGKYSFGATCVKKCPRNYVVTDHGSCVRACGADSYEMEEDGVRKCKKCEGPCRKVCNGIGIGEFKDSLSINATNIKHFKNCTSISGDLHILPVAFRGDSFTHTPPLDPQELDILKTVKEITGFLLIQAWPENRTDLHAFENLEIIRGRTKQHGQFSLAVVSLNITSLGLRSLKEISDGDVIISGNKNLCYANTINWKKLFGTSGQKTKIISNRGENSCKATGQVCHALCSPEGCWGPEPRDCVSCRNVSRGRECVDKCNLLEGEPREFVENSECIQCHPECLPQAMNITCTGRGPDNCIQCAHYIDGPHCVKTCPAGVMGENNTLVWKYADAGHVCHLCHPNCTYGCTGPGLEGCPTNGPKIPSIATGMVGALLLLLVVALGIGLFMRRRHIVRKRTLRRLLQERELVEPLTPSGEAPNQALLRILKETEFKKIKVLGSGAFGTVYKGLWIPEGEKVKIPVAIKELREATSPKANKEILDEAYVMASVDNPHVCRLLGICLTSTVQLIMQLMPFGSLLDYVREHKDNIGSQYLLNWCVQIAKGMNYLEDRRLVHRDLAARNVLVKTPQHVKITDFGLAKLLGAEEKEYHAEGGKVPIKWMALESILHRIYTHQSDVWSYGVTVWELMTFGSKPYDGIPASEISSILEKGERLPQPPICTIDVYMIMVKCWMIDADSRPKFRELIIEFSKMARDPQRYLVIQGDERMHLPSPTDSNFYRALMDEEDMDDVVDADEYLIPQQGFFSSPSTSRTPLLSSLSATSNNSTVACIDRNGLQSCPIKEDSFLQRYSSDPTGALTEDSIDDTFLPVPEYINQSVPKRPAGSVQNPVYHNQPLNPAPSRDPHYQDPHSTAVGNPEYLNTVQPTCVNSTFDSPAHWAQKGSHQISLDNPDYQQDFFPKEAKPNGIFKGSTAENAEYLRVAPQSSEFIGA

Assay [1] concerns the target EGFR (mutated) 695-1022, T790M, C797S, L858R (Homo sapiens (Human), UniProt P00533, C797S/L858R/T790M). Description: Biochemical EGFR inhibition assay (poly-GT substrate phosphorylation, TR-FRET LANCE Ultra). The protocol: (§1) Initially, the inhibitory effect of compounds according to the invention is measured in biochemical assays which measure the phosphorylation activity of EGFR enzyme forms on poly-GT substrate in the presence of different concentrations of ATP (5 μM and 100 μM final assay concentration).
(§2) The following enzyme forms of EGFR are representative examples that can be used in these assays at the given concentrations:
(§3) For the chosen highest assay concentration of 100 μM, 150 nL of compound solution is transferred from a 10 mM DMSO compound stock solution. A series of eleven fivefold dilutions per compound is transferred to the assay plate, compound dilutions are tested in duplicates. DMSO is added as backfill to a total volume of 150 nL. The assay runs on a fully automated robotic system.
(§4) 5 μL of EGFR enzyme form in assay buffer (50 mM HEPES pH 7.3, 10 mM MgCl2, 1 mM EGTA, 0.01% Tween 20, 2 mM DTT) are dispensed into columns 1-23, than 5 μL of ATP and ULight-poly-GT substrate (PerkinElmer; TRF0100-M) mix in assay buffer is added to all wells (final assay concentration of the ULight-poly-GT substrate 200 nM). Each of the different EGFR enzyme form assays is available at low ATP (final assay concentration 5 μM) and high ATP levels (final assay concentration 100 μM). After 90 minutes incubation at room temperature 5 μL EDTA (final assay concentration 50 mM) and LANCE Eu-anti-P-Tyr (PT66) antibody (PerkinElmer, AD0069) (final assay concentration 6 nM) mix are added to stop the reaction and start the binding of the antibody. […] Each plate contains 16 wells of a negative control (diluted DMSO instead of test compound; w EGFR enzyme form; column 23) and 16 wells of a positive control (diluted DMSO instead of test compound; w/o EGFR enzyme form; column 24). Negative and positive control values are used for normalization and IC50 values are calculated and analysed using a 4 parametric logistic model.
(§5) These biochemical EGFR enzyme form compound dose-response assays quantify the kinase activity via phosphorylation of a tagged poly-GT substrate. The results of the assay are provided as IC50 values.
For orientation: TR-FRET usually uses a lanthanide donor and a delayed reading to cut background.

Another assay has as its target EGFR wt (Homo sapiens (Human), UniProt P00533). The assay is described as above. Here is the method:
as §1, §2, §3, §4, §5

The test system of assay [2] is Ba/F3 cells driven by EGFR del19. Description: Ba/F3 proliferation assay (CellTiter-Glo viability). The conditions noted are these: Mus musculus, read-out: IC50 EGFR del19. Format: cell-based, murine. The protocol: (§6) Plasmids containing EGFR mutants were obtained from GeneScript. To generate EGFR-dependent Ba/F3 models, Ba/F3 cells were transduced with retroviruses containing vectors that harbor EGFR isoforms. Platinum-E cells (Cell Biolabs) were used for retrovirus packaging. Retrovirus was added to Ba/F3 cells. To ensure infection, 4 μg/mL polybrene was added and cells were spinfected. Infection efficiency was confirmed by measuring GFP-positive cells using a cell analyzer. Cells with an infection efficiency of 10% to 20% were further cultivated and puromycin selection with 1 μg/mL was initiated. As a control, parental Ba/F3 cells were used to show selection status. Selection was considered successful when parental Ba/F3 cells cultures died. To evaluate the transforming potential of EGFR mutations, the growth medium was no longer supplemented with IL-3. Ba/F3 cells harboring the empty vector were used as a control. A switch from IL-3 to EGF was performed for Ba/F3 cells with the wildtype EGFR known for its dependency on EGF ligand. Approximately ten days before conducting the experiments, puromycin was left out. For proliferation assays (data in table 13), Ba/F3 cells were seeded into 96-well plates at 5×10^3 cells/100 μL in growth media. Compounds were added by using a HP D3000 Digital Dispenser. All treatments were performed in technical triplicates. Treated cells were incubated for 72 h at 37° C. with 5% CO2. CellTiter-Glo® Luminescent Cell Viability Assay (Promega) was performed and chemoluminescence was measured by using the multilabel Plate Reader VICTOR X4. The raw data were imported into and analyzed with the Boehringer Ingelheim proprietary software MegaLab (curve fitting based on the program PRISM, GraphPad Inc.).

The test system of assay [3] is Ba/F3 cells driven by EGFR del19 T790M C797S. The assay is described as above. Format: cell-based, murine. The settings on record: Mus musculus, BaF3, 72 h. Here is the method:
as §6

Assay [4] relates to Ba/F3 cells driven by EGFR L858R C797S. Described as above. In kind it is cell-based, murine. The conditions noted are these: Mus musculus, BaF3, 72 h. Here is the method:
as §6

Assay [5] concerns Ba/F3 cells driven by EGFR L858R. The description is as above. The settings on record: Mus musculus, BaF3, 72 h. In kind it is cell-based, murine. The protocol: as §6
Assay [6] deals with Ba/F3 cells driven by EGFR wt. The description is as above. In kind it is cell-based, murine. The settings on record: Mus musculus, BaF3, 72 h. The protocol: as §6
In assay [7] the test system is Ba/F3 cells driven by EGFR L858R T790M. The assay is described as above. The settings on record: Mus musculus, BaF3, 72 h. Format: cell-based, murine. Here is the method: as §6
The subject of assay [8] is Ba/F3 cells driven by EGFR L858R T790M C797S. The description is as above. In kind it is cell-based, murine. The settings on record: Mus musculus, BaF3, 72 h. The protocol:
as §6

Assay [9] deals with Ba/F3 cells driven by EGFR del19 T790M. The description is as above. The conditions noted are these: Mus musculus, BaF3, 72 h. Format: cell-based, murine. Here is the method:
as §6

The test system of assay [10] is Ba/F3 cells EGFR-indep. + IL-3. The assay is described as above. Format: cell-based, murine. The settings on record: Mus musculus, BaF3, 72 h. The protocol:
as §6

In assay [11] the test system is Ba/F3 cells driven by EGFR del19 C797S. The description is as above. Format: cell-based, murine. The conditions noted are these: Mus musculus, BaF3, 72 h. Here is the method: as §6
The target in assay [12] is EGFR (d746-750 T790M C797S) (Homo sapiens (Human), UniProt P00533, C797S/DEL746-750/T790M). Description: Biochemical EGFR inhibition assay (poly-GT substrate phosphorylation, TR-FRET LANCE Ultra). The settings on record: 5 μM ATP; read-out: Del_TM_CS (5 μM ATP). The protocol:
as §1, §2
Test compounds dissolved in DMSO are dispensed onto assay plates (Proxiplate 384 PLUS, white, PerkinElmer; 6008289) using an Access Labcyte Workstation with the Labcyte Echo 55x. […]
5 μL of EGFR enzyme form in assay buffer (50 mM HEPES pH 7.3, 10 mM MgCl2, 1 mM EGTA, 0.01% Tween 20, 2 mM DTT) are dispensed into columns 1-23, than 5 μL of ATP and ULight-poly-GT substrate (PerkinElmer; TRF0100-M) mix in assay buffer is added to all wells (final assay concentration of the ULight-poly-GT substrate 200 nM). […] After additional 60 minutes incubation at room temperature the signal is measured in a PerkinElmer Envision HTS Multilabel Reader using the TR-FRET LANCE Ultra specs of PerkinElmer (used wavelengths: excitation 320 nm, emission 1 665 nm, emission 2 615 nm). […] Negative and positive control values are used for normalization and IC50 values are calculated and analysed using a 4 parametric logistic model. […]

The subject of a further assay is EGFR M+ NSCLC patients. The conditions noted are these: EGFR M+ NSCLC patients treated in 1st line; cited from earlier work.
In assay [13] the test system is EGFR M+ T790M-positive patients. The conditions noted are these: 2nd line, previously treated with earlier generation EGFR TKI; cited from earlier work.
Where [14] appears, read: 100 μM ATP, read-out: LR_TM_CS (100 μM ATP).
Setting [15] is: 100 μM ATP, read-out: wt (100 μM ATP).
[16] abbreviates: 5 μM ATP, read-out: LR_TM_CS (5 μM ATP).
[17] abbreviates: 5 μM ATP, read-out: wt (5 μM ATP).

Molecules are shown by their SMILES. Like-named read-outs stand apart in the source and are kept apart here. Some results are limits rather than exact numbers.

Chain of EGFR (mutated) 695-1022, T790M, C797S, L858R (P00533 695-1022 T790M/C797S/L858R): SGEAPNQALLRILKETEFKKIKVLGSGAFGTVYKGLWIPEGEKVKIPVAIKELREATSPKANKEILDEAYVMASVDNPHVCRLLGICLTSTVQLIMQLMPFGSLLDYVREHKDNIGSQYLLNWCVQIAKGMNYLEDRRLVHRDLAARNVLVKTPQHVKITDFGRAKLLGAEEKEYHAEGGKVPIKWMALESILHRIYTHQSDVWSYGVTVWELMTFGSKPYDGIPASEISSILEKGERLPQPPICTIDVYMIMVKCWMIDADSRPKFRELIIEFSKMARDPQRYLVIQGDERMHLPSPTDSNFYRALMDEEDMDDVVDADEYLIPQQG
Chain of EGFR wt (P00533 25-1210): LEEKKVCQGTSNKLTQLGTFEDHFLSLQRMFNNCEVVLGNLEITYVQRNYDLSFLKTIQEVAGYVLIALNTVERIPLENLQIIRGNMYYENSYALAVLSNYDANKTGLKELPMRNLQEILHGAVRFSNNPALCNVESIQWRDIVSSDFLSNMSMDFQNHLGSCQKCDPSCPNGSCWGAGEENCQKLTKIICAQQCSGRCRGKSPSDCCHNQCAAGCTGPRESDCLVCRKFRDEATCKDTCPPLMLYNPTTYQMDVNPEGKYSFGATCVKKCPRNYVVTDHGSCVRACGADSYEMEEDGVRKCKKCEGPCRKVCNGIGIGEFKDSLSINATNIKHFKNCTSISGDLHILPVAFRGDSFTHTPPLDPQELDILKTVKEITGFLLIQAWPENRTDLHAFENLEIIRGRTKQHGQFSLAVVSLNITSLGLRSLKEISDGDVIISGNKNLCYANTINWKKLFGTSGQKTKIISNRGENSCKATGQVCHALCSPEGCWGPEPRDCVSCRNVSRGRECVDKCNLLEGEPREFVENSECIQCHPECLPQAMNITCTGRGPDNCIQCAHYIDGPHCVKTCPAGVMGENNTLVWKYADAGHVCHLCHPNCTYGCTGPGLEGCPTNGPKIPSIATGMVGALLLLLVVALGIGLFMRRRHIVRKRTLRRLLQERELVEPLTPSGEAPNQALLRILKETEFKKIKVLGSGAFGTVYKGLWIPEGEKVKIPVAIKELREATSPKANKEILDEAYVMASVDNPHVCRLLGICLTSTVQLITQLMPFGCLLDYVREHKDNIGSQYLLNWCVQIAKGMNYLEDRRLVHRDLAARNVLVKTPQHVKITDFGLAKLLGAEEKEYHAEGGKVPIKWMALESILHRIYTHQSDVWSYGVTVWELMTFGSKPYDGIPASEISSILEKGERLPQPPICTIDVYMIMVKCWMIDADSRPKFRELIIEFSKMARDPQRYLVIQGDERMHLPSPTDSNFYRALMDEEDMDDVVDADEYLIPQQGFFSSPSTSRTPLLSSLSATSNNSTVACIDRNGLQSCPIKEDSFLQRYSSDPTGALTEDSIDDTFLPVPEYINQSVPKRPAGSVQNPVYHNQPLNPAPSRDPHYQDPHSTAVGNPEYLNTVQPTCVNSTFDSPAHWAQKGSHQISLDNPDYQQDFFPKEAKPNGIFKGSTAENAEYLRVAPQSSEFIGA
Chain of EGFR (d746-750 T790M C797S) (P00533 other isoform, or with tags, fused parts or gaps T790M/C797S/del 1-694/del 746-750 limits assumed): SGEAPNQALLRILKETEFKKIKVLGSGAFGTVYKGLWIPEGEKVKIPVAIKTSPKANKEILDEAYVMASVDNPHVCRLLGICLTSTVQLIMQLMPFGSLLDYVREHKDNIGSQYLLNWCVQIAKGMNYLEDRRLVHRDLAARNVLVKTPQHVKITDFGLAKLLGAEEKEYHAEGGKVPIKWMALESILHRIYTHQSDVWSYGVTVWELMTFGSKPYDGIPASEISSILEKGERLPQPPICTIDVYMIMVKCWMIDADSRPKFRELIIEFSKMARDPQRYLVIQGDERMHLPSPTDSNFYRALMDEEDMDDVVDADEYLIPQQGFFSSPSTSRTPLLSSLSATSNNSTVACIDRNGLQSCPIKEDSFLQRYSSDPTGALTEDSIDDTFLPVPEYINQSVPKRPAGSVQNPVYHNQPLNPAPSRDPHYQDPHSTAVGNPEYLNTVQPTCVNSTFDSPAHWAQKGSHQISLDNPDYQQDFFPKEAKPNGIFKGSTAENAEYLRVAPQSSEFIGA

`Cc1cc2cc(n1)-c1cnn(C)c1OCCCCCN1/C(=N/C2=O)Nc2ccccc21` [Compound I-001]: the IC50 at EGFR del19 T790M C797S is 1.2 nM; in [1] (setting [14]), 6 nM; at EGFR wt (setting [15]), above 100000 nM.

As to `Cc1cc2cc(n1)-c1cnn(C)c1OCCC[C@@H](C)CN1/C(=N/C2=O)Nc2ccccc21` [Compound I-003], the IC50 at EGFR del19 T790M C797S was 0.8 nM; in assay [1] (setting [14]), 3 nM; at EGFR wt (setting [15]), 900 nM.

With `Cc1cc2cc(n1)-c1cnn(C)c1OCCC[C@@H](C)CN1/C(=N/C2=O)Nc2ccc(Br)cc21` [Compound I-005], the IC50 was 4 nM against EGFR del19 T790M C797S, 16 nM in assay [1] (setting [14]) and above 100000 nM on EGFR wt (setting [15]).

On to `Cc1cc2cc(n1)-c1cnn(C)c1OCCC[C@@H](C)CN1/C(=N/C2=O)Nc2ccc(CN3CCN(C)CC3)cc21` [Compound I-021], for which the IC50 in assay [2] (BaF3, viability, 72 h) amounted to 1 nM; in [3], 0.2 nM; in assay [4], 4 nM; in assay [5] it was 7 nM; in assay [6], 190 nM; in assay [7], 0.9 nM. In addition, the IC50 in assay [8] was determined as 0.4 nM; in assay [9] it was 0.3 nM; in assay [10] it was 1.1 µM; in [11] it was 0.5 nM.

As for `Cn1ncc2c1OCCCCCN1/C(=N/C(=O)c3cc(F)nc-2c3)Nc2ccccc21` [Compound I-037], the IC50 is 1.2 nM at EGFR del19 T790M C797S; 0.3 nM in [1] (setting [16]); 3 nM in [1] (setting [14]); 13 nM on EGFR wt (setting [17]); above 100000 nM at EGFR wt (setting [15]); 0.2 nM in assay [12].

As to `C[C@@H]1CCCOc2ccccc2-c2cc(ccn2)C(=O)N=C2Nc3ccccc3N2C1` [Compound I-046], the IC50 was 4.1 nM against EGFR del19 T790M C797S; 1.8 nM in assay [1] (setting [16]); 16 nM in assay [1] (setting [14]); 18 nM at EGFR wt (setting [17]); above 100000 nM at EGFR wt (setting [15]); 1.3 nM in [12].

`CC1(C)CCOc2ccccc2-c2cc(ccn2)C(=O)/N=C2\Nc3ccccc3N2CC1` [Compound I-054] yielded an IC50 against EGFR del19 T790M C797S of 25 nM.

As for `Cc1cc2cc(n1)-c1cnn(C)c1OCCCCN1/C(=N/C2=O)Nc2ccccc21` [Compound I-055], the IC50 against EGFR del19 T790M C797S stood at 66 nM.

On to `Cc1cc2cc(n1)-c1ccc(F)cc1OCCCCCN1/C(=N/C2=O)Nc2ccccc21` [Compound I-056], for which the IC50 against EGFR del19 T790M C797S was 69 nM.

In the case of `CC(=O)N1CCCCC(n2/c(=N/C(=O)c3ccnc(C)c3)[nH]c3cccc(Cl)c32)C1` (centres unmarked) [Exp. WO 2014/121942, reference compound], the IC50 stood at 770 nM in [3], 2800 nM in assay [6], 2200 nM in assay [8] and 3.5 µM in assay [10].

Consider `COc1cc2ncnc(Nc3ccc(F)c(Cl)c3)c2cc1NC(=O)/C=C/CN1CCCCC1` [dacomitinib], for which the IC50 was found to be 0.01 nM in assay [2] (BaF3, viability, 72 h); 6.9 nM in [4]; 0.03 nM in [5]; 0.64 nM in assay [6]; 1.6 nM in assay [11].

Regarding `C#Cc1cccc(Nc2ncnc3cc(OCCOC)c(OCCOC)cc23)c1` [erlotinib], the objective response rate in the assay on EGFR M+ NSCLC patients is on record as 60-85%.

As for `Cc1cc(C(=O)Nc2nc3cccc(Cl)c3n2[C@@H]2CCCCN(C(=O)/C=C/CN(C)C)C2)ccn1` [nazartinib], the IC50 in assay [2] (BaF3, viability, 72 h) is 1.1 nM; in [5] it was 5.1 nM; in [10], above 5 µM.

As to `C=CC(=O)Nc1cc(Nc2nccc(-c3cn(C)c4ccccc34)n2)c(OC)cc1N(C)CCN(C)C` [osimertinib], the “patients that respond to treatment” value in assay [13] is on record as “Approximately 70%”. Further, the objective response rate in the assay with EGFR M+ NSCLC patients is reported as 60-85%. In [2] (BaF3, 72 h), the IC50 was 0.5 nM.
